Read-outs that look alike come from different tables or passages of the source.
What was measured:
[1] = target: T1, dopamine transporters (DAT) (Rattus norvegicus, UniProt P23977); test: [3H]MPP+ release via DAT from rat brain synaptosomes; assay type: biochemical; conditions: for [3H]MPP+ release via DAT EC50: rat brain synaptosomes, 9 nM [3H]MPP+, mean ± SD, n = 3, inactive = efficacy less than 33% of maximal release
[2] = target: serotonin transporters (SERT) (Rattus norvegicus, UniProt P31652); test: [3H]serotonin uptake inhibition in rat brain synaptosomes; assay type: biochemical
Sequence of serotonin transporters (SERT) (P31652 whole entry): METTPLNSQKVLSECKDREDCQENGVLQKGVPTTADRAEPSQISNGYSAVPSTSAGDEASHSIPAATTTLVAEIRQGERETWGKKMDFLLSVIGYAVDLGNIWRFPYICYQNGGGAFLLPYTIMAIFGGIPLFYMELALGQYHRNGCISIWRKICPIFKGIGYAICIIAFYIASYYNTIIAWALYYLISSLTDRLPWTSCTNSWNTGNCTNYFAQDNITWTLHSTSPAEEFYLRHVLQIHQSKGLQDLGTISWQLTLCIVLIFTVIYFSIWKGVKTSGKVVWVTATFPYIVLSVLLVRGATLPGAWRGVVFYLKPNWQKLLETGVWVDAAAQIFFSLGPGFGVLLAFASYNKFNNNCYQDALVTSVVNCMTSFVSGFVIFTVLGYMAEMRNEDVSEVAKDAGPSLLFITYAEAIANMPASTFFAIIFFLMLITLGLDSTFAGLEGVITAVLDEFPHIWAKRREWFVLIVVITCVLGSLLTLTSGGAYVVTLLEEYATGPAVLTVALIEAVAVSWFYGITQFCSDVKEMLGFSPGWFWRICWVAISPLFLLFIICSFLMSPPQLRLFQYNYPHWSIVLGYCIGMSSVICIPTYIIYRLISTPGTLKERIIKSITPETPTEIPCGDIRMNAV

5-HT transporters (SERT) = 5-HT transporters (SERT) (Rattus norvegicus, UniProt P31652); test: [3H]5-HT release via SERT from rat brain synaptosomes; assay type: biochemical
Sequence of 5-HT transporters (SERT) (P31652 whole entry): as above

[3] = target: T2, norepinephrine transporters (NET) (Rattus norvegicus, UniProt Q63380); test: [3H]norepinephrine uptake inhibition in rat brain synaptosomes; assay type: biochemical
T2 sequence (Q63380 1-617): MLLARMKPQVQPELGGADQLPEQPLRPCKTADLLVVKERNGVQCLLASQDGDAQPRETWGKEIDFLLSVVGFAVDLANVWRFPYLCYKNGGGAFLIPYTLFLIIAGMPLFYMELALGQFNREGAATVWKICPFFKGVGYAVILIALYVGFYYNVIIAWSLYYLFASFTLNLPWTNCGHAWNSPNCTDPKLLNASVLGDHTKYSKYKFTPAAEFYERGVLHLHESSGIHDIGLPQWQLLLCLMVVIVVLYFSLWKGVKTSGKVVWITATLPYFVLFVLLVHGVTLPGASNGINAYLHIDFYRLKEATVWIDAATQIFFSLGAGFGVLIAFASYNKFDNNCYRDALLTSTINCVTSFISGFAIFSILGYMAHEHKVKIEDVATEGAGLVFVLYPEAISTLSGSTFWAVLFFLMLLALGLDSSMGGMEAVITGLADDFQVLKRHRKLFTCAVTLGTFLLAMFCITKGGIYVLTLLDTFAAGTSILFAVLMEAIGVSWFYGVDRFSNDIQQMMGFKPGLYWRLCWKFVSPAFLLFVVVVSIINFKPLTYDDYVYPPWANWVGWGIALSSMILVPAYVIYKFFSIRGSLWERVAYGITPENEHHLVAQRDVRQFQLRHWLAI

[4] = target: T1, dopamine transporters (DAT); test: [3H]dopamine uptake inhibition in rat brain synaptosomes; assay type: biochemical; conditions: 5 nM [3H]dopamine, mean ± SD, n = 3, inactive = no inhibition at 10,000 nM; for IC50: [3H]DA uptake via DAT IC50, rat brain synaptosomes
[5] = target: T2, norepinephrine transporters (NET); test: [3H]MPP+ release via NET from rat brain synaptosomes; assay type: biochemical; conditions: for [3H]MPP+ release via NET EC50: rat brain synaptosomes, 9 nM [3H]MPP+, mean ± SD, n = 3, inactive = efficacy less than 33% of maximal release
[6] = Stability of N-methoxymephedrone; assay type: physicochemical; conditions: solid; over time converts from a colourless solid to a brown solid; hygroscopic
[7] = [3H]5-HT release via SERT EC50, rat brain synaptosomes, 5 nM [3H]5-HT, mean ± SD, n = 3, inactive = efficacy less than 33% of maximal release
[8] = ratio of uptake IC50 values versus mexedrone

T1 sequence (P23977 whole entry): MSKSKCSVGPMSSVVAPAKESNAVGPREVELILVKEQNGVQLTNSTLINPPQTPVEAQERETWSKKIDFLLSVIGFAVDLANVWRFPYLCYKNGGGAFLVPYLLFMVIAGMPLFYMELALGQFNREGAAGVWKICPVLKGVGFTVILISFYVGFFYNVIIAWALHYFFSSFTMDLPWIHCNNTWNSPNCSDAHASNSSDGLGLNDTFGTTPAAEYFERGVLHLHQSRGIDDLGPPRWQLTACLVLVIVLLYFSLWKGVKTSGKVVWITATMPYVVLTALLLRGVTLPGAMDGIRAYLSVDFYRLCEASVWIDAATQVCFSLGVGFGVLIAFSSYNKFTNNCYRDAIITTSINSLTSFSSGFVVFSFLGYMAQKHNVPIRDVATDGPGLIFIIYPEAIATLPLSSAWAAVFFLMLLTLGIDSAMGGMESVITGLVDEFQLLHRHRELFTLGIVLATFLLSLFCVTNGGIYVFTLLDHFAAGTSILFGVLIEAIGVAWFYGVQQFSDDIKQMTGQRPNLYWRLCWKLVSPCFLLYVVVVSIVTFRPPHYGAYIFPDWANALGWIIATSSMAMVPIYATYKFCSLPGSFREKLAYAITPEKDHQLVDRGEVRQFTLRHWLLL

Structure (SMILES) | EC50 [1] | IC50 [2] | EC50 (5-HT transporters (SERT); [7]) | IC50 [3] | IC50 [4] | EC50 [5] | [3H]MPP+ release via DAT EC50 [1] | EC50 (5-HT transporters (SERT); releasing activity at SERT EC50, rat brain synaptosomes) | [3H]MPP+ release via NET EC50 [5] | fold more potent than mexedrone at SERT (uptake inhibition) [2, 8] | stability in crystalline form [6] | EC50 (5-HT transporters (SERT)) | fold more potent than mexedrone at NET (uptake inhibition) [3, 8] | [3H]5-HT uptake via SERT IC50 ([2]; rat brain synaptosomes, 5 nM [3H]serotonin, mean ± SD, n = 3, inactive = no inhibition at 10,000 nM) | [3H]5-HT release via SERT EC50 (5-HT transporters (SERT); rat brain synaptosomes, 5 nM [3H]5-HT, mean ± SD, n = 3, inactive = efficacy less than 33% of maximal release) | [3H]NE uptake via NET IC50 ([3]; rat brain synaptosomes, 10 nM [3H]norepinephrine, mean ± SD, n = 3, inactive = no inhibition at 10,000 nM) | [3H]DA uptake via DAT IC50 ([4]; rat brain synaptosomes)
CNC(C)C(=O)c1ccc(C)cc1 (stereo not shown) [Mephedrone, 2-(methylamino)-1-(4-methylphenyl)propan-1-one, reference compound] | 45 ± 6 nM | 470 ± 7.6 nM | 163 ± 30 nM | 494 ± 93 nM | 1060 ± 85 nM | 58 ± 7 nM | – | – | – | – | – | – | – | – | – | – | –
CNC(COC)C(=O)c1ccc(C)cc1 (stereo not shown) [Mexedrone, 3-Methoxy-2-(methylamino)-1-(4-methylphenyl)propan-1-one] | – | 5290 ± 1620 nM | 2520 ± 560 nM | 8870 ± 3100 nM | 6840 ± 1520 nM | – | inactive | 2500 nM | inactive | – | – | – | – | – | – | – | –
CON(C)C(C)C(=O)c1ccc(C)cc1 (stereo not shown) [N-Methoxymephedrone, 2-(Methoxy(methyl)amino)-1-(4-methylphenyl)propan-1-one] | 666 ± 132 nM | 3330 ± 1130 nM | – | 3460 ± 728 nM | 6090 ± 1620 nM | 313 ± 51 nM | – | – | – | 1.6 fold | unstable | 1040 ± 271 nM | 2.6 fold | – | – | – | –
CNC(CCl)C(=O)c1ccc(C)cc1 (stereo not drawn) [α-Chloromethylmephedrone, 3-chloro-2-(methylamino)-1-(4-methylphenyl)propan-1-one] | – | – | – | – | – | – | inactive | – | inactive | – | – | – | – | inactive | inactive | inactive | inactive
